Where “and” joins values, the source holds several entries; their conditions need not be identical. Equal values may be shown once.
Legend:
[1] = In vitro studies in human skin microsomes: metabolic turnover; assay type: in vitro ADME
Source text: The reason for the decrease in plasma concentrations over time is unknown. Without wishing to be bound by theory, as the skin heals, there may be less penetration of the drug through the stratum corneum and into the systemic circulation since the barrier is restored.

[2] = system: mild to severe plaque psoriasis; assay: Treat-to-target pooled analysis of the PSOARING trials; assay type: in vivo, human
Source text: In addition to a % BSA of ≤1.0% and PASI75, pooled analyses explored more aggressive targets, including the proportion of patients with % BSA of ≤0.5%, or an absolute PASI score of ≤1, ≤2 or ≤3. […] Safety analyses are based on all patients who received tapinarof in the PSOARING trials.

[3] = system: adults with plaque psoriasis; assay: Long-term extension study (PSOARING 3): adverse events; assay type: in vivo, human
Source text: Endpoints: Incidence, frequency, and nature of AEs, adverse events of special interest (AESIs), and serious adverse events (SAEs), Change over time in clinical laboratory tests and frequency of clinically significant abnormal test results, Change over time in vital signs and frequency of clinically significant abnormal results, Local Tolerability Scale (LTS) scores by severity summarized by visit.
Safety assessments included AEs, AESIs, SAEs, local (application site) tolerability, clinical laboratory tests, vital signs, physical examinations, and Investigator assessed LTS. Efficacy assessments included a 5 point static PGA (0 [clear], 1 [almost clear], 2 [mild], 3 [moderate], 4 [severe]), % BSA affected, the PASI, and subject reported DLQI.

[4] = system: adults with plaque psoriasis; assay: Long-term extension study (PSOARING 3): % BSA affected; assay type: in vivo, human
Procedure: The % BSA affected is an estimate of the percentage of total involved skin with psoriasis. For the purpose of clinical estimation, the total palmar surface of the subject's palm and digits was assumed to be approximately equivalent to 1% BSA. The % BSA affected by psoriasis was evaluated (from 0% to 100%). Details on calculation of approximate % BSA involvement in each subject (total and individual) can be found in Appendix 2 of the protocol. Percent BSA is a static assessment made without reference to previous scores.
At Screening, Baseline, and for all efficacy assessments, lesions on the subject's scalp, palms, fingernails, toenails, and soles were not included in the calculation of % BSA affected as these areas were excluded from the efficacy analyses.

[5] = final analysis, Tapinarof→Tapinarof
[6] = final analysis, Vehicle→Tapinarof

## CC(C)c1c(O)cc(/C=C/c2ccccc2)cc1O [Tapinarof, 3,5-Dihydroxy-4-isopropyl-trans-stilbene]
[1]
  metabolic turnover: no metabolic turnover
[2]; 915 patients, baseline PGA≥2
  KM estimated median time to target % BSA≤0.5%: 199 days
  mean time to target PASI≤3: 58 days
  median time to target % BSA≤1.0%: 120 days
  median time to target PASI≤1: 185 days
  median time to target PASI≤2: 87 days
  patients who achieved % BSA≤0.5%: 49.7%
  patients who achieved % BSA≤1.0%: 61.3% and 61%
  patients who achieved PASI≤1: 50.3%
  patients who achieved PASI≤2: 66.9% and 67%
  patients who achieved PASI≤3: 75.0%
[2]; within ˜3 months
  patients who achieved ≤1% BSA affected: 40%
[3]; final analysis
  TEAE incidence: contact dermatitis: 5.5%
  TEAE incidence: folliculitis: 22.7%
  TEAE incidence: upper respiratory tract infection: 4.7%
  discontinuation rate due to contact dermatitis: 1.4%
  discontinuation rate due to folliculitis: 1.2%
[3]; final analysis, Overall
  Study discontinuation due to AESI: Dermatitis contact: 11 (1.4) n (%)
  Study discontinuation due to AESI: Folliculitis: 9 (1.2) n (%)
  Study discontinuation due to AESI: Headache: 0 n (%)
  Study discontinuation due to TEAEs: 41 (5.4) n (%)
  Treatment-emergent AESI: Dermatitis contact: 45 (5.9) n (%)
  Treatment-emergent AESI: Folliculitis: 183 (24.0) n (%)
  Treatment-emergent AESI: Headache: 15 (2.0) n (%)
[3]; [5]
  Study discontinuation due to AESI: Dermatitis contact: 7 (1.4) n (%)
  Study discontinuation due to AESI: Folliculitis: 6 (1.2) n (%)
  Study discontinuation due to AESI: Headache: 0 n (%)
  Study discontinuation due to TEAEs: 26 (5.1) n (%)
  Treatment-emergent AESI: Dermatitis contact: 24 (4.7) n (%)
  Treatment-emergent AESI: Folliculitis: 124 (24.4) n (%)
  Treatment-emergent AESI: Headache: 10 (2.0) n (%)
[3]; [6]
  Study discontinuation due to AESI: Dermatitis contact: 4 (1.6) n (%)
  Study discontinuation due to AESI: Folliculitis: 3 (1.2) n (%)
  Study discontinuation due to AESI: Headache: 0 n (%)
  Study discontinuation due to TEAEs: 15 (5.9) n (%)
  Treatment-emergent AESI: Dermatitis contact: 21 (8.2) n (%)
  Treatment-emergent AESI: Folliculitis: 59 (23.1) n (%)
  Treatment-emergent AESI: Headache: 5 (2.0) n (%)
[3]; interim
  study discontinuation rate due to contact dermatitis: 1.4%
  study discontinuation rate due to folliculitis: 1.2%
[3]; interim, Overall
  Premature discontinuation due to AEs: 5.8%
[3]; interim, Tapinarof (Pivotal) group
  Premature discontinuation due to AEs: 5.7%
[3]; interim, Vehicle (Pivotal) group
  Premature discontinuation due to AEs: 5.9%
[4]; Week 16, LOCF, Tapinarof (Pivotal) group
  mean % BSA affected: 2.54%
[4]; Week 16, LOCF, Vehicle (Pivotal) group
  mean % BSA affected: 3.36%
[4]; Week 16, OC, Tapinarof (Pivotal) group
  mean % BSA affected: 1.97%
[4]; Week 16, OC, Vehicle (Pivotal) group
  mean % BSA affected: 2.89%
[4]; Week 16 LOCF, Overall
  mean % BSA affected: 2.82%
[4]; Week 16 OC, Overall
  mean % BSA affected: 2.28%
[4]; Week 40, LOCF, Tapinarof (Pivotal) group
  mean % BSA affected: 2.44%
[4]; Week 40, LOCF, Vehicle (Pivotal) group
  mean % BSA affected: 2.99%
[4]; Week 40, OC, Tapinarof (Pivotal) group
  mean % BSA affected: 1.75%
[4]; Week 40, OC, Vehicle (Pivotal) group
  mean % BSA affected: 2.07%
[4]; Week 40 LOCF, Overall
  mean % BSA affected: 2.63%
[4]; Week 40 OC, Overall
  mean % BSA affected: 1.85%
